Experimental data taken from PMC8811955 (Biochemistry, 2022).

Tested on: ySB267 (OSR4p-SEC4, Ca.Ste2)
Test: Peptide concentration-dependent growth of ySB267
Format: cell-based, Saccharomyces cerevisiae
Conditions: ySB267, tested concentrations, 20 h

## GFRLTNFGYFEPG [Ca peptide]
  Peptide concentration above which maximum growth rate was reached: > 2.5 nM
